According to patent US10597388B2, “Pyridazinone herbicides” (FMC CORPORATION, priority 2014, dated 2020):

Legend:
Format in all cases: in vivo
[1] = test system: beggarticks (hairy beggarticks, Bidens pilosa); assay: Test E greenhouse herbicide test, pre- and postemergence
Text: (§1) Seeds of plant species selected from corn (Zea mays), soybean (Glycine max), velvetleaf (Abutilon theophrasti), lambsquarters (Chenopodium album), wild poinsettia (Euphorbia heterophylla), pigweed, palmer (palmer pigweed, Amaranthus palmeri), waterhemp (common waterhemp, Amaranthus rudis), surinam grass (Brachiaria decumbens), crabgrass, large (large crabgrass, Digitaria sanguinalis), crabgrass, Brazilian (Brazilian crabgrass, Digitaria horizontalis), panicum, fall (fall panicum, Panicum dichotomiflorum), foxtail, giant (giant foxtail, Setaria faberii), foxtail, green (green foxtail, Setaria viridis), goosegrass (Eleusine indica), johnsongrass (Sorghum halepense), ragweed (common ragweed, Ambrosia elatior), barnyardgrass (Echinochloa crus-galli), sandbur (southem sandbur, Cenchrus echinatus), arrowleaf sida (Sida rhombifolia), Italian ryegrass (Lolium multiflorum), dayflower (Virginia (VA) dayflower, Commelina virginica), field bindweed (Convolvulus arvensis), momingglory (Ipomoea coccinea), nightshade (eastern black nightshade, Solanum ptycanthum), kochia (Kochia scoparia), nutsedge, yellow (yellow nutsedge, Cyperus esculentus), horseweed (Conyza canadensis), and beggarticks (hairy beggarticks, Bidens pilosa), were planted into a silt loam soil and treated preemergence with test chemicals formulated in a non-phytotoxic solvent mixture which included a surfactant.
(§2) At the same time, plants from these crop and weed species and also waterhemp_RES1, (ALS & Triazine resistant common waterhemp, Amaranthus rudis), and waterhemp_RES2, (ALS & HPPD resistant common waterhemp, Amaranthus rudis) were planted in pots containing Redi-Earth® planting medium (Scotts Company, 14111 Scottslawn Road, Marysville, Ohio 43041) comprising spaghnum peat moss, vermiculite, wetting agent and starter nutrients were treated with postemergence applications of test chemicals formulated in the same manner. Plants ranged in height from 2 to 18 cm for postemergence treatments (1- to 4-leaf stage). Treated plants and controls were maintained in a greenhouse for 14 to 21 d, after which time all species were compared to controls and visually evaluated. Plant response ratings, summarized in Table E, are based on a scale of 0 to 100 where 0 is no effect and 100 is complete control. A dash (-) response means no test result.

[2] = test system: field bindweed (Convolvulus arvensis); assay: as above
Text: as §1, §2

[3] = test system: panicum, fall (fall panicum, Panicum dichotomiflorum); assay: as above
Text: as §1, §2

[4] = test system: horseweed (Conyza canadensis); assay: as above
Text: as §1, §2

soybean (Glycine max) = assay: as above
Text: as §1, §2

[5] = test system: lambsquarters (Chenopodium album); assay: as above; settings: Preemergence
Text: as §1, §2

[6] = test system: dayflower (Virginia (VA) dayflower, Commelina virginica); assay: as above
Text: as §1, §2

[7] = test system: momingglory (Ipomoea coccinea); assay: as above; settings: Preemergence
Text: as §1, §2

[8] = test system: arrowleaf sida (Sida rhombifolia); assay: as above
Text: as §1, §2

[9] = test system: wheat, spring (spring wheat, Triticum aestivum); assay: Test D controlled growth environment herbicide test, pre- and postemergence
Method in brief: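 Rating is visual, 0–100 scale (100 = complete control), made against untreated plants 14–21 d after treatment in controlled growth conditions. Postemergence sprays went onto 1- to 4-leaf plants in peat medium; preemergence sprays onto silt loam after sowing; formulation included a surfactant.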

[10] = 62 g ai/ha, Preemergence, scale 0 to 100 (0 no effect, 100 complete control)
[11] = Preemergence, 31 g ai/ha, scale 0 to 100, 0 no effect, 100 complete control
[12] = Preemergence, 125 g ai/ha, visual, scale 0 no effect to 100 complete control
[13] = Preemergence, 250 g ai/ha, visual, scale 0 no effect to 100 complete control
[14] = 125 g ai/ha, Preemergence, scale 0 to 100 (0 no effect, 100 complete control)
[15] = 62 g ai/ha, scale 0 to 100 (0 no effect, 100 complete control)
[16] = 31 g ai/ha, scale 0 to 100, 0 no effect, 100 complete control
[17] = 125 g ai/ha, visual, scale 0 no effect to 100 complete control
[18] = 250 g ai/ha, visual, scale 0 no effect to 100 complete control
[19] = 125 g ai/ha, scale 0 to 100 (0 no effect, 100 complete control)
[20] = Postemergence, 31 g ai/ha, scale 0 to 100 (0 no effect, 100 complete control)
[21] = Postemergence, 125 g ai/ha, visual rating on scale 0 (no effect) to 100 (complete control), 14 to 21 d
[22] = Postemergence, 250 g ai/ha, scale 0 to 100 (0 no effect, 100 complete control)
[23] = Preemergence, 125 g ai/ha, scale 0 to 100 (0 no effect, 100 complete control)
[24] = Preemergence, 250 g ai/ha, scale 0 to 100 (0 no effect, 100 complete control)
[25] = postemergence, 62 g ai/ha, scale 0 to 100, 0 no effect, 100 complete control
[26] = 62 g ai/ha, Postemergence, scale 0 to 100 (0 no effect, 100 complete control)
[27] = 125 g ai/ha, Postemergence, scale 0 to 100 (0 no effect, 100 complete control)
[28] = 250 g ai/ha, Postemergence, scale 0 to 100 (0 no effect, 100 complete control)
[29] = Postemergence, 31 g ai/ha, visual, scale 0 no effect to 100 complete control

Compound: CC(=O)Oc1c(C)nn(C)c(=O)c1-c1c(C)sc2c(C)cc(C)cc12 [Compound 27]
- Plant response rating, Beggarticks [1, 10]: 100
- Plant response rating, Beggarticks [1, 11]: 90
- Plant response rating, Beggarticks [1, 12]: 100
- Plant response rating, Beggarticks [1, 13]: 100
- Plant response rating, Field Bindweed [2, 10]: 40
- Plant response rating, Field Bindweed [2, 11]: 0
- Plant response rating, Field Bindweed [2, 12]: 70
- Plant response rating, Field Bindweed [2, 13]: 70
- Plant response rating, Panicum, Fall [3, 10]: 100
- Plant response rating, Panicum, Fall [3, 14]: 100
- Plant response rating, Panicum, Fall [3, 11]: 100
- Plant response rating, Panicum, Fall [3, 13]: 100
- Plant response rating, Horseweed [4, 10]: 100
- Plant response rating, Horseweed [4, 11]: 100
- Plant response rating, Horseweed [4, 12]: 100
- Plant response rating, Horseweed [4, 13]: 100
- Plant response rating, Soybean (soybean (Glycine max); [10]): 0
- Plant response rating, Soybean (soybean (Glycine max); [14]): 0
- Plant response rating, Soybean (soybean (Glycine max); [11]): 0
- Plant response rating, Soybean (soybean (Glycine max); [13]): 0
- Plant response rating, Lambsquarters [5, 15]: 100
- Plant response rating, Lambsquarters [5, 16]: 100
- Plant response rating, Lambsquarters [5, 17]: 100
- Plant response rating, Lambsquarters [5, 18]: 100
- Plant response rating, Dayflower, VA [6, 10]: 10
- Plant response rating, Dayflower, VA [6, 11]: 0
- Plant response rating, Dayflower, VA [6, 12]: 30
- Plant response rating, Dayflower, VA [6, 13]: 65
- Plant response rating, Morningglory [7, 15]: 85
- Plant response rating, Morningglory [7, 19]: 90
- Plant response rating, Morningglory [7, 16]: 85
- Plant response rating, Morningglory [7, 18]: 100
- Plant response rating, Arrowleaf Sida [8, 10]: 65
- Plant response rating, Arrowleaf Sida [8, 11]: 40
- Plant response rating, Arrowleaf Sida [8, 12]: 75
- Plant response rating, Arrowleaf Sida [8, 13]: 35
- Wheat, Spring plant response rating [9, 20]: 0
- Plant response rating, Wheat, Spring [9, 21]: 10
- Plant response rating, Wheat, Spring [9, 22]: 20
- Plant response rating (scale of 0 to 100), Wheat, Spring ([9]; Preemergence, 31 g ai/ha): 0
- Plant response rating, Wheat, Spring ([9]; Preemergence, 62 g ai/ha, scale 0 to 100 (0 no effect, 100 complete control)): 0
- Plant response rating, Wheat, Spring [9, 23]: 5
- Plant response rating, Wheat, Spring [9, 24]: 25
- Plant response rating, Wheat, Spring [9, 25]: 5

Compound: CC(=O)Oc1c(C)nn(C)c(=O)c1-c1c(C)cc(C)c2ccccc12 [Compound 153]
- Plant response rating, Beggarticks [1, 26]: 100
- Plant response rating, Beggarticks [1, 10]: 100
- Plant response rating, Beggarticks [1, 27]: 100
- Plant response rating, Beggarticks [1, 14]: 100
- Plant response rating, Beggarticks [1, 28]: 100
- Plant response rating, Beggarticks [1, 29]: 100
- Plant response rating, Beggarticks [1, 11]: 100
- Plant response rating, Beggarticks [1, 13]: 100
- Plant response rating, Field Bindweed [2, 26]: 90
- Plant response rating, Field Bindweed [2, 10]: 100
- Plant response rating, Field Bindweed [2, 27]: 100
- Plant response rating, Field Bindweed [2, 14]: 100
- Plant response rating, Field Bindweed [2, 28]: 95
- Plant response rating, Field Bindweed [2, 29]: 80
- Plant response rating, Field Bindweed [2, 11]: 90
- Plant response rating, Field Bindweed [2, 13]: 100
- Plant response rating, Panicum, Fall [3, 26]: 90
- Plant response rating, Panicum, Fall [3, 27]: 90
- Plant response rating, Panicum, Fall [3, 14]: 100
- Plant response rating, Panicum, Fall [3, 28]: 90
- Plant response rating, Panicum, Fall [3, 29]: 85
- Plant response rating, Panicum, Fall [3, 11]: 100
- Plant response rating, Panicum, Fall [3, 13]: 100
- Plant response rating, Horseweed [4, 26]: 80
- Plant response rating, Horseweed [4, 10]: 100
- Plant response rating, Horseweed [4, 27]: 85
- Plant response rating, Horseweed [4, 14]: 100
- Plant response rating, Horseweed [4, 28]: 85
- Plant response rating, Horseweed [4, 29]: 85
- Plant response rating, Horseweed [4, 11]: 90
- Plant response rating, Horseweed [4, 13]: 100
- Plant response rating, Soybean (soybean (Glycine max); [27]): 10
- Plant response rating, Soybean (soybean (Glycine max); [14]): 30
- Plant response rating, Soybean (soybean (Glycine max); [28]): 25
- Plant response rating, Soybean (soybean (Glycine max); [29]): 0
- Plant response rating, Soybean (soybean (Glycine max); [11]): 30
- Plant response rating, Lambsquarters [5, 19]: 100
- Plant response rating, Lambsquarters [5, 16]: 100
- Plant response rating, Lambsquarters [5, 18]: 100
- Plant response rating, Dayflower, VA [6, 26]: 90
- Plant response rating, Dayflower, VA [6, 10]: 85
- Plant response rating, Dayflower, VA [6, 27]: 90
- Plant response rating, Dayflower, VA [6, 14]: 90
- Plant response rating, Dayflower, VA [6, 28]: 95
- Plant response rating, Dayflower, VA [6, 29]: 85
- Plant response rating, Dayflower, VA [6, 11]: 80
- Plant response rating, Dayflower, VA [6, 13]: 90
- Plant response rating, Morningglory [7, 19]: 90
- Plant response rating, Morningglory [7, 16]: 85
- Plant response rating, Morningglory [7, 18]: 100
- Plant response rating, Arrowleaf Sida [8, 26]: 50
- Plant response rating, Arrowleaf Sida [8, 10]: 70
- Plant response rating, Arrowleaf Sida [8, 27]: 40
- Plant response rating, Arrowleaf Sida [8, 14]: 60
- Plant response rating, Arrowleaf Sida [8, 28]: 40
- Plant response rating, Arrowleaf Sida [8, 29]: 40
- Plant response rating, Arrowleaf Sida [8, 11]: 50
- Plant response rating, Arrowleaf Sida [8, 13]: 75
- Wheat, Spring plant response rating [9, 20]: 20
- Plant response rating, Wheat, Spring [9, 21]: 40
- Plant response rating, Wheat, Spring [9, 22]: 50
- Plant response rating (scale of 0 to 100), Wheat, Spring ([9]; Preemergence, 31 g ai/ha): 25
- Plant response rating (scale of 0 to 100), Wheat, Spring ([9]; Preemergence, 62 g ai/ha): 45
- Plant response rating, Wheat, Spring [9, 23]: 70
- Plant response rating, Wheat, Spring [9, 24]: 85
- Plant response rating, Wheat, Spring [9, 25]: 30

Compound: CCOC(=O)Oc1c(C)nn(C)c(=O)c1-c1c(CC)ccc2ccccc12 [Compound 37]
- Plant response rating, Beggarticks [1, 10]: 98
- Plant response rating, Beggarticks [1, 11]: 80
- Plant response rating, Beggarticks [1, 12]: 98
- Plant response rating, Beggarticks [1, 13]: 100
- Plant response rating, Field Bindweed [2, 10]: 90
- Plant response rating, Field Bindweed [2, 11]: 75
- Plant response rating, Field Bindweed [2, 12]: 85
- Plant response rating, Field Bindweed [2, 13]: 100
- Plant response rating, Panicum, Fall [3, 10]: 100
- Plant response rating, Panicum, Fall [3, 14]: 100
- Plant response rating, Panicum, Fall [3, 11]: 90
- Plant response rating, Panicum, Fall [3, 13]: 100
- Plant response rating, Horseweed [4, 10]: 100
- Plant response rating, Horseweed [4, 11]: 100
- Plant response rating, Horseweed [4, 12]: 100
- Plant response rating, Horseweed [4, 13]: 100
- Plant response rating, Soybean (soybean (Glycine max); [10]): 0
- Plant response rating, Soybean (soybean (Glycine max); [11]): 0
- Plant response rating, Soybean (soybean (Glycine max); [13]): 0
- Plant response rating, Lambsquarters [5, 15]: 100
- Plant response rating, Lambsquarters [5, 16]: 100
- Plant response rating, Lambsquarters [5, 17]: 98
- Plant response rating, Lambsquarters [5, 18]: 100
- Plant response rating, Dayflower, VA [6, 10]: 5
- Plant response rating, Dayflower, VA [6, 11]: 0
- Plant response rating, Dayflower, VA [6, 12]: 40
- Plant response rating, Dayflower, VA [6, 13]: 60
- Plant response rating, Morningglory [7, 15]: 40
- Plant response rating, Morningglory [7, 19]: 50
- Plant response rating, Morningglory [7, 16]: 15
- Plant response rating, Morningglory [7, 18]: 65
- Plant response rating, Arrowleaf Sida [8, 10]: 85
- Plant response rating, Arrowleaf Sida [8, 11]: 70
- Plant response rating, Arrowleaf Sida [8, 12]: 90
- Plant response rating, Arrowleaf Sida [8, 13]: 98
